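Test compounds were applied to cells in 96-well plates for 48 hours at 5 doses. The concentration for 50% growth inhibition is given as GI50. The concentration for full growth arrest is given as TGI.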
Each compound was assayed on MDA-MB-468 breast (assay: NCI-60 cell line screen, 48 h).

SMILES | GI50 [µM] | TGI [µM]
COc1ccc(OC)c(/C=C/c2nc(=S)n(-c3ccc(Cl)cc3)[nH]2)c1 | 3.51 | 55.4
O=C1/C(=C/c2ccc(Cl)c(Cl)c2)CN(C(=O)CCN2CCC(=NO)CC2)C/C1=C\c1ccc(Cl)c(Cl)c1 | 0.898 | 2.4
COc1cc2c(cc1Nc1nc(N3CCc4ccccc43)c3cc[nH]c3n1)N(C(=O)CN(C)C)CC2 | 1.3 | 2.83
CC(=O)ON1CCCC(P(=O)(OCOC(=O)C(C)(C)C)OCOC(=O)C(C)(C)C)C1=O (stereo unspecified) | 1.01 | 5.92
O=C(OCc1ccc2c(Br)cc(Br)c(O)c2n1)c1cc2ccccc2[nH]1 | 0.419 | 1.54
COc1cc2c(N3CCN(C(=O)Nc4ccc(OC(C)C)cc4)CC3)ncnc2cc1OCCCN1CCCCC1 | 14.1 | 42.9
N#CC1(c2ccc(NC(=O)c3cccnc3NCc3ccncc3)cc2)CCCC1 | 7.04 | 51.8
CC(C)(CO)CNC(=O)c1ccc2[nH]c(O)c(N=Nc3ccc(S(N)(=O)=O)cc3)c2c1 | > 17.9 | > 25
CN(C)CCCC1(c2ccc(F)cc2)OCc2cc(-c3cccc4[nH]ccc34)ccc21 (stereo unspecified) | 1.79 | 3.43
O=C1NC(=N[C@@H](CO)c2ccccc2)S/C1=C\c1ccc2ncccc2c1 | 5.78 | > 25
C[C@]12CC[C@H]3[C@@H](CCC4=CC(=O)CC[C@@]43C)[C@@H]1CC[C@@H]2c1csc(N)n1 | 1.17 | 18.5
CNCc1cccc2c1OCCOCCOCCN(C)S(=O)(=O)c1ccc(cc1)-c1cnc(N)c(n1)C(=O)N2 | 2.62 | 14.6
FC(F)(F)Oc1cccc(-c2cc(NCCCCCCNc3cc(-c4cccc(OC(F)(F)F)c4)nc4ccc(N5CCCC5)cc34)c3cc(N4CCCC4)ccc3n2)c1 | 1.59 | 3.21
CCN1C(=O)N(CC)C2SC(N/N=C/c3ccc(OC)cc3)=NC21 (stereo unspecified) | 0.314 | –
CCCCCOc1ccc(/C=N/Nc2cc(C)nc3ccc(Cl)cc23)cc1 | 1.7 | 3.37
O=C(Nc1cccc(-n2cc(-c3ccncc3)c(-c3cc(O)cc(Cl)c3)n2)c1)c1ccc(N2CCOCC2)c(C(F)(F)F)c1 | 3.42 | 43.3
Cc1ccc2c(-c3ccnc(Nc4ccc5c(c4)OCCO5)n3)c(-c3ccc(C(F)(F)F)cc3)nn2n1 | 5.19 | > 25
Nc1nc2c(c3cnccc13)C(c1ccc(Cl)c(Cl)c1)Cc1cnccc1-2 (stereo unspecified) | 0.27 | 0.807
CCN(CC)CCCC(C)NCC(=O)NC(c1ccc2c(c1)OCO2)c1cc(Cl)c2cccnc2c1O (stereo unspecified) | 1.87 | 4.5
OC1(c2ccc(Cl)c(C(F)(F)F)c2)CCN(CCCC(c2ccc(F)cc2)c2ccc(F)cc2)CC1 | 0.707 | 1.37
N#Cc1nc2c(S(=O)(=O)c3ccc(Cl)cc3)c(N)n(Nc3cccc(Cl)c3)c2nc1C#N | 0.00706 | 0.195
c1ccc(-c2[nH]ncc2-c2ccnc(-c3ccc(OCCn4ccnc4)cc3)c2)nc1 | 12.2 | > 25
COc1ccc2c(c1)c(-c1nc(-c3c[nH]c4ncccc34)cs1)cn2CCCN1CCOCC1 | 2.52 | 5.25
COC(=O)OC1C(O[C@H]2C[C@H]3[C@@H]4CC=C5C[C@@H](O)CC[C@]5(C)[C@H]4CC[C@]3(C)[C@H]2[C@H](C)C(=O)CCC(C)C)OCC(O)C1OC1OCC(O)C(O)C1OC(=O)c1ccc(OC)cc1 (stereo partly specified) | 0.111 | 1.7
Cc1c(C(=N)C(C#N)C#N)c(=N)oc2c1ccc1ccccc12 | 13.5 | 46
CCn1cc(C(=O)O)c(=O)c2cc(F)c(N3CCN(S(=O)(=O)c4cccc5ccccc45)CC3)cc21 | 2.52 | 7.32
